Tests used:
[1] = Blood (R)-3-hydroxybutyrate level after oral administration; assay type: in vivo; conditions: for circulating levels of (R)-3-hydroxybutyrate in the blood: general statement; for uptake in the gut: upon consumption of a drink
Description: At a dose of 1 g/kg of body weight of the subject, the blood (R)-3-hydroxybutyrate concentration is suitably at least 4 mM, preferably 5 mM. Upon oral administration of monoester of 1.5 g/kg of body weight of the subject, the blood (R)-3-hydroxybutyrate concentration is suitably at least 7 mM, preferably at least 8 mM, especially at least 9 mM. A dosing regime comprises multiple drinks consumed separately.
Blood levels of (R)-3-hydroxybutyrate may be determined by commercially available testing kits, for example, (R)-3-hydroxybutyrate can be measured on whole blood using a handheld monitor and reagent strips (Precision Xtra, Abbott Diabetes Care, UK).

[2] = Body weight change after five-day ketone ester drink regime; assay type: in vivo, human; conditions: 393 mg/kg body weight 3 times per day for 5 days
Description: Three obese subjects (BMI 33±3 kg/m^2) and seven lean subjects (BMI 23±2 kg/m^2), matched for age, gender, diabetes duration, treatment and HBA1c, underwent a ^1H-MRS scan for quantification of liver steatosis. All subjects were weighed and underwent a treatment regime for five days in which each subject consumed three drinks per day containing 0.393 g/kg body weight of (R)-3-hydroxybutyrate-R-1,3-butanediol monoester, made up to a final volume of 3.3 ml/kg body weight. […] The subjects were not asked to change their normal diet, but did keep diet diaries. Subjects lost 1.3 kg over the five-day period, irrespective of their starting body weight. The weight loss in 7 lean subjects (FIG. 1a) and 3 obese subjects (FIG. 1b) was the same, 1.3 kg, after drinking 393 mg/kg body weight (R)-3-hydroxybutyrate-(R)-1,3 butanediol monoester (ΔG®) 3 times per day for 5 days.

liver fat [3] = assay: Reduction of liver fat, general statement; assay type: in vivo
liver fat [4] = assay: 1H Magnetic Resonance Spectroscopy (MRS) of liver, quantification of liver fat; assay type: in vivo, human; conditions: for liver fat (hepatic triglyceride relative to water): lean subjects; for liver triglyceride level: obese subjects
Description: Three obese subjects (BMI 33±3 kg/m^2) and seven lean subjects (BMI 23±2 kg/m^2), matched for age, gender, diabetes duration, treatment and HBA1c, underwent a ^1H-MRS scan for quantification of liver steatosis. All subjects were weighed and underwent a treatment regime for five days in which each subject consumed three drinks per day containing 0.393 g/kg body weight of (R)-3-hydroxybutyrate-R-1,3-butanediol monoester, made up to a final volume of 3.3 ml/kg body weight. […] Liver ^1H-MRS was performed on each of the subjects at the beginning and end of the 5 days to determine the change in liver fat. The ^1H-MRS measurements were carried out on a 3 T Siemens Tim Trio using a whole-body coil and 6-channel anterior plus 24-channel posterior phased-array coils for signal receiving. To obtain hepatic ^1H-MRS, an 8-ml voxel (2×2×2) was positioned in the liver, avoiding gross vascular, biliary structures and adipose tissue depots. Spectra, with and without water suppression, were obtained to calculate hepatic triglyceride content as a percentage relative to water (triglyceride/water×100). A calibration pulse sequence was implemented to evaluate the optimal water suppression pulse scaling factor. Individual coil signals were combined within Matlab using specifically written modules. The water-suppressed scans were constructively averaged, including frequency correction. Spectra were quantified using the Advanced Method of Accurate, Robust and Efficient Spectroscopic ([…]) fitting algorithm. Metabolite peaks (including lipid/triglycerides) were analyzed and prior knowledge was used for all peak locations by using soft constraints. All peaks were fitted using Lorentzian lineshapes.

[5] = end of the 5 days, 393 mg/kg 3 times per day

Compound | period of raised (R)-3-hydroxybutyrate concentrations ([1]; compared with ketone salts) | circulating levels of (R)-3-hydroxybutyrate in the blood [1] | uptake in the gut [1] | weight loss ([2]; 3 obese subjects) [kg] | weight loss ([2]; 7 lean subjects) [kg] | effect on liver fat (liver fat [3]) | change in liver fat (liver fat [4]; 7 lean subjects, 393 mg/kg 3 times per day for 5 days) | liver fat (hepatic triglyceride relative to water) (liver fat [4]; beginning of the 5 days) [%] | liver fat (hepatic triglyceride relative to water) (liver fat [4]; [5]) [%] | liver triglyceride level (liver fat [4]; beginning of the 5 days) [%] | liver triglyceride level (liver fat [4]; [5]) [%]
C[C@@H](O)CCOC(=O)C[C@@H](C)O [(R)-3-hydroxybutyrate (R)-1,3-butanediol monoester] | longer period than ketone salts | high circulating levels | surprisingly high level of uptake in the gut | 1.3 | 1.3 | reduce liver fat | no loss of liver fat | 2.3 | 2.5 | 17.5 | 14.1
(R)-3-hydroxybutyrate-glycerol partial ester |  | high circulating levels | surprisingly high level of uptake in the gut |  |  | reduce liver fat |  |  |  |  | 

Source: patent publication US12439944B2, “3-hydroxybutyrate compounds for use in reducing liver fat” (TDeltaS Limited, priority 2017, dated 2025)
